Assay results as given in patent publication US20060052376A1, “Carboxamides” (Merck Patent GmbH, priority 2002, published 2006).

How the values were obtained:
[1] = biological target: FXa (Homo sapiens, UniProt P00742); test: Factor Xa inhibition (FXa-IC50); type: biochemical
Source text: The inhibition of factor Xa by the compounds according to the invention and the measurement of the anticoagulant and antithrombotic activity can be determined by conventional in-vitro or in-vivo methods. A suitable method is described, for example, by J. Hauptmann et al. in Thrombosis and Haemostasis 1990, 63, 220-223.
The inhibition of factor Xa can be measured, for example by the method of T. Hara et al. in Thromb. Haemostas. 1994, 71, 314-319.

[2] = biological target: TF/FVIIa (Homo sapiens, UniProt P08709); test: TF/FVIIa inhibition (TF/FVIIa-IC50); type: biochemical
TF/FVIIa, sequence (P08709 213-466 limits assumed): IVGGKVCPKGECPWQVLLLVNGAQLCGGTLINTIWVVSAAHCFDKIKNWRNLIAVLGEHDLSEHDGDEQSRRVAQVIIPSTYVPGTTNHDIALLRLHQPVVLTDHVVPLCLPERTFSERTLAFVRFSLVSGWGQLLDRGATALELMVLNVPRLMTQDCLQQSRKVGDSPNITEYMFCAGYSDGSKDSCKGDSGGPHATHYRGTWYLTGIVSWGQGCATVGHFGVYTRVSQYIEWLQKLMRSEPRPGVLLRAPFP
TF/FVIIa, sequence (P08709 61-212 partner limits assumed): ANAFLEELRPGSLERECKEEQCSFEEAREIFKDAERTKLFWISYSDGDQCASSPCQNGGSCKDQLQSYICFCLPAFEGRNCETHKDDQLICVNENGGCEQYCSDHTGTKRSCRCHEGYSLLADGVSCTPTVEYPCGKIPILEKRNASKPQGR
TF/FVIIa, sequence (P13726 33-295 partner): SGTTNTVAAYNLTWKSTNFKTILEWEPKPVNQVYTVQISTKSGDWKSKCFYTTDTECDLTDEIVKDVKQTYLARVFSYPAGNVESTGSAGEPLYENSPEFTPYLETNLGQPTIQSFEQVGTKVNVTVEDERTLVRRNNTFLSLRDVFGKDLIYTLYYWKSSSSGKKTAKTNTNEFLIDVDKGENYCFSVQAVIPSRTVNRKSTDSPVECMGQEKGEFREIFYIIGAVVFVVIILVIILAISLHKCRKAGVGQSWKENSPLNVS
Source text: Coagulation factor VIIa initiates the extrinsic part of the coagulation cascade after binding to tissue factor and contributes to the activation of factor X to give factor Xa. Inhibition of factor Vila thus prevents the formation of factor Xa and thus subsequent thrombin formation. The inhibition of factor Vila by the compounds according to the invention and the measurement of the anticoagulant and antithrombotic activity can be determined by conventional in-vitro or in-vivo methods. A conventional method for the measurement of the inhibition of factor VIIa is described, for example, by H. F. Ronning et al. in Thrombosis Research 1996, 84, 73-81.

FXa, sequence (P00742 235-488 limits assumed): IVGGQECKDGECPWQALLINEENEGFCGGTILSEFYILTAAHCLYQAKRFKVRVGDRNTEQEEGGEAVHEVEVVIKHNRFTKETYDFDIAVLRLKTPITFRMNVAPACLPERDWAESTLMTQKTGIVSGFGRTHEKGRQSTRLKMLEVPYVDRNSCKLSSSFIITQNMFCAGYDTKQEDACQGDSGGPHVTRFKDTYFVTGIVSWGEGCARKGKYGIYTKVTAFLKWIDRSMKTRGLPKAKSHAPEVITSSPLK
FXa, sequence (P00742 41-179 partner limits assumed): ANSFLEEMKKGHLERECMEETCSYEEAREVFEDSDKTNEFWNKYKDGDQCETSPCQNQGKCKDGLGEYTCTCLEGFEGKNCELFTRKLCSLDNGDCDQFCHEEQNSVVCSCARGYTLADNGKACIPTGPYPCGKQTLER

Row | Compound | IC50 [1] [nM] | IC50 [2] [nM]
1 | Cc1cc(NC(=O)[C@@H](CC(C)C)NC(=O)c2ccc(Cl)s2)ccc1N1CCOCC1=O [Compound 1A, (R)-2-[(5-chlorothiophene-2-carbonyl)amino]-N-[3-methyl-4-(3-oxomorpholin-4-yl)phenyl]-4-methylvaleramide] | 7.3 | 6.9
2 | CC(C)C[C@@H](NC(=O)c1ccc(Cl)s1)C(=O)Nc1ccc(-n2ccncc2=O)cc1 [Compound 2A, (R)-2-[(5-chlorothiophene-2-carbonyl)amino]-N-[4-(2-oxo-2H-pyrazin-1-yl)phenyl]4-methylvaleramide] | 39 | –
3 | CC(C)C[C@@H](NC(=O)c1ccc(Cl)s1)C(=O)Nc1ccc(N2CCCCC2=N)cc1 [Compound 4A, (R)-2-[(5-chlorothiophene-2-carbonyl)amino]-N-[4-(2-iminopiperidin-1-yl)phenyl]-4-methylvaleramide] | 25 | –
4 | CC(C)C[C@H](NC(=O)c1ccc(Cl)s1)C(=O)Nc1ccc(N2CCCCC2=N)cc1 [Compound 4B, (S)-2-[(5-chlorothiophene-2-carbonyl)amino]-N-[4-(2-iminopiperidin-1-yl)phenyl]-4-methylvaleramide] | 260 | –
